Measurements: publication PMC12048343, “Discovery of a small molecule secreted clusterin enhancer that improves memory in Alzheimer’s disease mice” (npj Drug Discovery, 2025)
≈ marks a conversion by molar mass, not a printed value. Entries after “also recorded” stand apart in the source; their conditions may differ. Like-named read-outs stand apart in the source and are kept apart here.

How the values were obtained:
[1] = system: sCLU secreted from human U-87 MG glioblastoma cells; assay: Human sCLU AlphaLISA on supernatant of U-87 MG cells (HTS, re-test, dose response); type: cell-based; conditions: for sCLU levels relative to DMSO control: 5 µM
Procedure: Cell culture supernatant (2 μL) was added to a 384-well proxy plate preloaded with AlphaLISA HiBlock buffer (2 µL, 1X, CAT#AL004C, Perkin Elmer). Then an anti-sCLU antibody mixture (2 µL, mAb J84, biotinylated (10 nM, Cat# 3717-6-1000, Mabtech) and mAb CLU aa 22-227 (Cat#AF7084, R&D Systems), Acceptor bead conjugated (50 µg/mL, Cat#6772001, Perkin Elmer)) was added and incubated at room temperature for 1 hour. AlphaScreen Streptavidin Donor beads (2 µL, Cat#6760002S, Perkin Elmer) were added, incubated for an additional 30 min in the dark, and the plate was read in an Envision plate reader.
Human glioblastoma U-87 MG cells were proliferated in EMEM with 10% FBS and 1% P/S (complete medium) in 10 cm dishes until approximately 90% confluent. Following trypsinization, a suspension of 2 × 10^5 cells/mL (25 µL) were added to 384-well plates containing complete medium (25 µL) and library compounds from 9 plates (5 µM). After incubation for 30 h at 37 °C and 5% CO2, 2 μL of cell culture supernatant were analyzed via human sCLU AlphaLISA as described above. Cell culture medium and cells were added to the 384-well plates using the MultiDrop. The BioMek FX was used to pin the drugs and transfer the cell culture supernatant. The MANTIS liquid handler was used to added human sCLU AlphaLISA reagents.
Human glioblastoma U-87 MG cells were proliferated in EMEM with 10% FBS and 1% P/S (complete medium) in 10 cm dishes until approximately 90% confluent. […] After incubation for 30 hours at 37 °C and 5% CO2, 2 μL of cell culture supernatant were analyzed via human sCLU AlphaLISA as described above.

[2] = system: nCLU levels in U-87 MG cells; assay: nCLU levels in U-87 MG cells; type: cell-based, human; conditions: 5 µM
[3] = Kinetic solubility; type: physicochemical; conditions: aqueous buffer, kinetic from dmso stock, PBS pH 7.4, 37 °C, 100 µM nominal
Procedure: Test compound (10 mM, 100% DMSO) was diluted separately into aqueous buffer (100 µM; PBS pH 7.4) and DMSO at various concentrations (1000, 100, 10, 1, 0.1 µM). The solutions were then incubated at 37 °C for 90 min and centrifuged (16000xg, 5 min). An aliquot of each supernatant was analyzed by UV/Vis (if possible) or LC-MS/MS. A standard curve was made by plotting the known amount of analyte per standard in DMSO vs. absorbance or chromatographic peak area. Kinetic solubility (mM) was calculated using the trendline equation with maximum absorbance or chromatographic peak area observed in the aqueous sample.

[4] = Liver microsome stability assay; type: in vitro ADME; conditions: pH 7.4; human liver microsomes 0.5 mg/mL, NADPH, 37 °C, up to 120 min; read-out: Microsomal Stability t1/2
Procedure: An aliquot (1 µL) of test compound (1 mM, 100% DMSO) was added to an aqueous liver microsome solution (1000 µL, PBS pH 7.4, 0.5 mg/mL human liver microsomes (Thermo Fisher Scientific, Cat#HMMPL), 2 mM NADPH, 2 mM MgCl2) and incubated at 37 °C for 120 min. Aliquots (50 µL) of the microsome solution were taken at various time points (0, 5, 10, 15, 30, 60, 90, 120 min) and added to a reaction quenching solution (200 µL 100% Acetonitrile) containing an internal standard. Solutions were clarified by centrifugation (16,000 x g, 5 min), and the supernatants were transferred to new tubes and lyophilized. Samples were reconstituted in 100 µL of 50/50/0.1 (Water/Acetonitrile/Formic Acid) prior to analysis via liquid chromatography-tandem mass spectrometry (LC-MS/MS). Chromatographic peak areas normalized to the internal standard were plotted at each time point and the half-life (t1/2) of compound in liver microsomes was determined by using the trendline equation to calculate the time at which compound abundance was 50% of that at time point 0 (t0).

[5] = Plasma binding assay (dialysis); type: in vitro ADME; conditions: dialysis 4.5 hours, 37 °C
Procedure: (§1) Brain tissue was homogenized in PBS (pH 7.4) (1: 3 weight(mg)/volume(µL)) and the protein concentration was determined using the Micro BCA™ Protein Assay Kit (Thermo Fisher Scientific, Cat#23235). Brain homogenate was clarified and diluted to 20 mg/mL in PBS (pH 7.4). Either brain homogenate or plasma was and added to Slide-A-Lyzer™ MINI Dialysis Devices, 10 K MWCO dialysis cups (Thermo Fisher Scientific, Cat#PI88401) in a 48-well plate containing PBS (500 µL; pH 7.4). 1 µL of 1 mM compound was added to the brain homogenate (Final Concentration: 2 µM compound, 0.5% DMSO) and incubated on a rocker for 4.5 hours at 37 °C. 50 µL of brain homogenate or plasma (within the dialysis cup) and PBS (within the 48-well plate) were transferred to new microcentrifuge tubes containing 400 µL of quenching reagent (100% Acetonitrile) containing internal standard. Solutions were clarified by centrifugation (16,000 x g, 5 min), and the supernatants were transferred to new tubes and lyophilized. Samples were reconstituted in 100 µL of 50/50/0.1 (Water/Acetonitrile/Formic Acid) prior to analysis via liquid chromatography-tandem mass spectrometry (LC-MS/MS). The % of the unbound drug (fu,bound) was calculated using the following equation:
(§2) % Bound = [1− (PBS chromatographic peak area/ brain homogenate or plasma chromatographic peak area)] x 100

[6] = Brain tissue binding assay (dialysis); type: in vitro ADME; conditions: brain homogenate 20 mg/mL, 2 µM compound, dialysis 4.5 hours, 37 °C
Procedure: as §1, §2

[7] = Blood-Brain Barrier (BBB) permeability assay (IAM column, Pm); type: in vitro ADME; conditions: pH 7.4; Pm > 1.0 = CNS+
Procedure: A liquid chromatography-ultraviolet/visible spectroscopy (LC-UV/Vis) assay was performed on a 1290 Infinity HPLC system (Agilent Technologies) with an HPLC column containing immobilized phosphatidylcholine (IAM.PC.DD, Regis Technologies, Cat#774011, 5 µm 300 Å 100 ×4.6 mm). The HPLC method was a mixture of 6.7 mM phosphate buffer saline (pH 7.4; solvent A) and acetonitrile (solvent B), and a gradient was used for the elution of the compounds (min/%B: 0/20, 20/60, 21/20, 30/20). The retention time of the compound (tr) and void volume time of the column (t0) were recorded. Blood-brain barrier (BBB) permeability (Pm) was calculated using the following equations as described by Yoon et al. (10.1177/1087057105281656):
KIAM = (tr − t0) / t0; Pm = (KIAM / MW^4) x 10^10
Compounds with a Pm > 1.0 were determined to be BBB permeable (CNS + ) at pH 7.

[8] = molecular target: BRD2 (Homo sapiens, UniProt P25440); assay: BRD2 inhibition assay; type: biochemical
Chain of BRD2 (P25440 whole entry): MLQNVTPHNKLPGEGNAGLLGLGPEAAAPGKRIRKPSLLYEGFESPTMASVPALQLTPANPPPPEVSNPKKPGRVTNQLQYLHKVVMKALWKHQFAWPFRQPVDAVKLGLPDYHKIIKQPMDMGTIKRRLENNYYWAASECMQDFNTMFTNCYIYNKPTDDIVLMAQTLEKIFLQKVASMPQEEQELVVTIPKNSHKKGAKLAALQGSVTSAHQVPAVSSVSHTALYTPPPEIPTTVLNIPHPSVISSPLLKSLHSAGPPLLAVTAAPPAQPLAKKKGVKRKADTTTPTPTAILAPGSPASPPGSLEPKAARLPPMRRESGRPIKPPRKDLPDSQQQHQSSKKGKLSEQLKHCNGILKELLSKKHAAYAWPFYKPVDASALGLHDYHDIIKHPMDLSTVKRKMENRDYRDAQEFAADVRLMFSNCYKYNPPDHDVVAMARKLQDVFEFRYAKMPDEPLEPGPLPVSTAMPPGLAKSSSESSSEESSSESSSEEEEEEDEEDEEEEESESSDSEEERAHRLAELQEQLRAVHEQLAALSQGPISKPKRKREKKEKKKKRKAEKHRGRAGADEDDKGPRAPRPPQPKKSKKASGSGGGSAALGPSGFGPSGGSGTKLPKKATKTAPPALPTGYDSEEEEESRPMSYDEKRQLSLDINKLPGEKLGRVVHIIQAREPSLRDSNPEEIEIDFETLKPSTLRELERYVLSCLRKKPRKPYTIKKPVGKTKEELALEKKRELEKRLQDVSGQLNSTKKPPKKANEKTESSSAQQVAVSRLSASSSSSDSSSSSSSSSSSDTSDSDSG

[9] = molecular target: BRD4 (Homo sapiens, UniProt O60885); assay: BRD4 inhibition assay; type: biochemical
[10] = system: U-87 MG cells; assay: Cytotoxicity, MultiTox-Fluor (CNS gliotoxicity); conditions: U-87 MG cells, dose response (Fig. 2F)
Description: Cell viability and toxicity were simultaneously assessed using the MultiTox-Fluor Multiplex Cytotoxicity Assay (Cat# PRG9200, Fisher Scientific) according to the manufacturer’s protocol.

[11] = Homo sapiens, U-87 MG cells, 30 h, AlphaLISA of supernatant, read-out: EC50 for sCLU increase
[12] = selective HDAC / BET inhibitors, dose response (Fig. S1), read-out: sCLU EC50
[13] = Homo sapiens, U-87 MG cells, dose response, text and figures, read-out: sCLU EC50

| SMILES | EC50 [1, 11] | solubility kinetic at 90 min [3] | half-life at 1 µM [4] | Plasma Binding [5] | Brain Tissue Binding [6] | PAMPA Pm [7] | further results |
| --- | --- | --- | --- | --- | --- | --- | --- |
| Cc1sc2c(c1C)C(c1ccc(Cl)cc1)=N[C@@H](CC(=O)OC(C)(C)C)c1nnc(C)n1-2 [(+)-JQ1, reference compound] | 313 nM | 86.5 µM (≈ 39.5 µg/mL) | 27 min | 85 % bound | 87 % bound | 1.44 | nCLU levels [2]: not affecting nCLU levels |
| CCNC(=O)c1cc2c(-c3cc(C(C)(C)O)ccc3Oc3c(C)cc(F)cc3C)cn(C)c(=O)c2[nH]1 [ABBV-774] |  |  |  |  |  |  | potency as sCLU enhancer, comparison in words ([1]; U-87 MG cells, dose response): less potent sCLU enhancers than pan-BET inhibitors; EC50 [1, 12]: 1100 nM |
| CCCc1nn(C)c2c(=O)[nH]c(-c3cc(Cc4ccc(C(=O)Nc5ccccc5N)cc4)ccc3OCC)nc12 [CM-675] |  |  |  |  |  |  | EC50 [1, 12]: 6000 nM |
| Cc1sc2c(c1C)C(c1ccc(Cl)cc1)=N[C@@H](CC(=O)OC1CCCC1)c1nnc(C)n1-2 [DDL-351] | 117 nM | 57.5 µM (≈ 27 µg/mL) | 3 min | 99 % bound | 94 % bound | 1.35 | IC50 [8]: 175 nM; IC50 [9]: 27 nM |
| Cc1sc2c(c1C)C(c1ccc(Cl)cc1)=N[C@@H](CC(=O)N1CCCC1)c1nnc(C)n1-2 [DDL-352] | 1440 nM | > 100 µM | 62 min | 96 % bound | 64 % bound | 0.98 | IC50 ([8]; read-out: BRD2 IC50): 644 nM; IC50 ([9]; read-out: BRD4 IC50): 105 nM |
| Cc1sc2c(c1C)C(c1ccc(Cl)cc1)=N[C@@H](CC(=O)NC1CCCC1)c1nnc(C)n1-2 [DDL-353] | 977 nM | > 100 µM | 8 min | 93 % bound | 79 % bound | 1.08 | IC50 ([8]; read-out: BRD2 IC50): 385 nM; IC50 ([9]; read-out: BRD4 IC50): 63 nM |
| Cc1sc2c(c1C)C(c1ccc(Cl)cc1)=N[C@@H](CC(=O)NCC(=O)OC(C)C)c1nnc(C)n1-2 [DDL-354] | 676 nM | 91.1 µM (≈ 45.6 µg/mL) | 12 min | 91 % bound | 67 % bound | 0.76 | IC50 ([8]; read-out: BRD2 IC50): 382 nM; IC50 ([9]; read-out: BRD4 IC50): 48 nM |
| Cc1sc2c(c1C)C(c1ccc(Cl)cc1)=N[C@@H](CC(=O)OC1CCC1)c1nnc(C)n1-2 [DDL-355] | 99 nM | 63.7 µM (≈ 29 µg/mL) | 27 min | 86 % bound | 88 % bound | 1.42 | IC50 [8]: 163 nM; IC50 [9]: 19 nM |
| CCCCOC(=O)C[C@@H]1N=C(c2ccc(Cl)cc2)c2c(sc(C)c2C)-n2c(C)nnc21 [DDL-358] | 446 nM | 59.3 µM (≈ 27.1 µg/mL) | 14 min | 98 % bound | 93 % bound | 1.42 | IC50 [8]: 207 nM; IC50 [9]: 28 nM |
| Cc1sc2c(c1C)C(c1ccc(Cl)cc1)=NC(CC(=O)NC(C)C(=O)OC(C)C)c1nnc(C)n1-2 (centres unmarked) [DDL-359] | 2340 nM | > 100 µM | 13 min | 94 % bound | 44 % bound | 0.71 | IC50 ([8]; read-out: BRD2 IC50): 130 nM; IC50 ([9]; read-out: BRD4 IC50): 353 nM |
| Cc1sc2c(c1C)C(c1ccc(Cl)cc1)=N[C@@H](CC(=O)NO)c1nnc(C)n1-2 [DDL-360] | 631 nM | > 100 µM | > 120 min | 88 % bound | 59 % bound | 1.09 | IC50 ([8]; read-out: BRD2 IC50): 395 nM; IC50 ([9]; read-out: BRD4 IC50): 70 nM |
| COc1cc2c(cc1-c1c(C)noc1C)ncc1[nH]c(=O)n(C(C)c3ccccn3)c12 (centres unmarked) [I-BET151] |  |  |  |  |  |  | EC50 [1, 13]: 617 nM; sCLU levels relative to DMSO control ([1]; U-87 MG cells): increased sCLU; also recorded: significantly increase sCLU levels; nCLU levels [2]: not affecting nCLU levels |
| O=C(NO)c1ccc(CNc2cccc3cccnc23)cc1 [MPT0G211] |  |  |  |  |  |  | EC50 [1, 12]: 10000 nM |
| Cc1cc(/N=N/c2ccc(S(=O)(=O)Nc3ccccn3)cc2)c(N)cc1O [MS436] |  |  |  |  |  |  | potency as sCLU enhancer, comparison in words ([1]; U-87 MG cells, dose response): less potent sCLU enhancers than pan-BET inhibitors |
| Nc1cc(F)ccc1NC(=O)/C=C/c1cnn(C/C=C/c2ccccc2)c1 [RGFP966] |  |  |  |  |  |  | EC50 ([1]; Homo sapiens, U-87 MG, selective HDAC / BET inhibitors, dose response 2-5000 nM (Fig. S1), read-out: sCLU EC50): 10100 nM |
| O=C(/C=C/c1cccc(S(=O)(=O)Nc2ccccc2)c1)NO [belinostat] |  |  |  |  |  |  | EC50 [1, 13]: 1120 nM; sCLU levels relative to DMSO control ([1]; U-87 MG cells): increased sCLU; nCLU levels [2]: not affecting nCLU levels; cytotoxicity, comparison in words [10]: significant differences between belinostat and the BET inhibitors at the highest concentrations tested |
| COc1cc(/C=C/C(=O)N2CCC=CC2=O)cc(OC)c1OC [piperlongumine] |  |  |  |  |  |  | sCLU levels relative to DMSO control ([1]; U-87 MG cells): significantly increase sCLU levels |
| O=C(CCCCCCC(=O)Nc1ccccc1)NO [vorinostat] |  |  |  |  |  |  | nCLU levels [2]: not affecting nCLU levels |
